# Source: US7501384B2, “Crystalline modification of the anhydrate of boscalid” (BASF Aktiengesellschaft, priority 2003, dated 2009)
# Experiment: Tank mixing compatibility: 5% suspension of water-dispersible granules in CIPAC D water mixed with 1% Solvesso 200, stored, solid residue on 75 μm sieve determined
# Assay type: physicochemical
# Method: Comparison of the Tank Mixing Compatibility: For this purpose, both water-dispersible granules of the above composition, comprising anhydrate of the compound of the formula I of modification I (formulation A), and water-dispersible granules of anhydrate of the compound of the formula I of modification II (formation B) were prepared. A 5% strength suspension of the respective water-dispersible granules in CIPAC D water (Ca^++/Mg^++ (4:1) hardness of 342 ppm and pH of from 6.0 to 7.0 was then prepared. This suspension was then mixed with 1% of Solvesso 200 (mixture of aromatic hydrocarbons) as a typical solvent for solvent-containing liquid formulations (e.g. EC). The corresponding spray liquor was then stored over a certain period at a certain temperature. For assessing the quality, the solid residue on a 75 μm sieve was determined after the storage.
compound,measurement,value
"O=C(Nc1ccccc1-c1ccc(Cl)cc1)c1cccnc1Cl [modification II, 2-chloro-N-(4′-chlorobiphenyl-2-yl)-nicotinamide]",crystal growth in the presence of solvents,scarcely any crystal growth
